We go through two compounds from paper PMC12651578, “Ultrasound-Assisted Fibril Formation Enhances Complexation of Oat Globulin with Quercetin: Mechanism, Structure Evolution, Delivery Performance” (Foods, 2025).

Data set [1] is described as follows: Photostability of Que under 365 nm UV lamp. Type of data set: physicochemical. The following applies: 1.32 mW/cm^2, 150 min. Here is the method:
The photostability of encapsulated Que was assessed using a 365 nm UV lamp with a light intensity of 1.32 mW/cm^2. Aliquots of 5 mL from each sample group were placed 10 cm away from the UV light source and exposed for various durations (0, 10, 30, 60, 90, 120, and 150 min). The retention of Que in each sample was then measured.

Data set [2] in a line: Thermal stability of Que at 85 °C. It counts as physicochemical. As for the experimental part:
The thermal stability of Que was evaluated following a previously described method with slight modifications. Briefly, 5 mL aliquots of free Que suspension (control), OG-Que complex solution, OGF-Que complex solution, and UOGF-Que complex solution were placed in a water bath at 85 °C under dark conditions in sealed containers. At predetermined time intervals (0, 10, 30, 60, 90, 120, and 150 min), samples were withdrawn, rapidly cooled to 25 °C, vortexed, and analyzed for Que retention.

Data set [3] is described as follows: In vitro simulated gastrointestinal digestion, bioaccessibility of Que. Type of data set: in vitro ADME. The following applies: simulated gastric (2 h) and intestinal (2 h) digestion, 37 °C. Here is the method:
The release behavior and bioaccessibility of Que in the complex system were evaluated using an in vitro simulated digestion model with modifications based on previous studies. Briefly, sample solutions loaded with Que (protein concentration: 4 mg/mL) were mixed with equal volumes (10 mL) of simulated gastric fluid containing pepsin. The pH was adjusted to 2.0 using 6 M HCl, and the mixture was incubated at 37 °C with shaking at 100 rpm to simulate gastric digestion for 2 h. Afterward, the pH was adjusted to 7.0 to terminate gastric digestion. For intestinal digestion, 5 mL of the gastric digest was mixed with 5 mL of simulated intestinal fluid containing trypsin and bile salts, followed by incubation at 37 °C for another 2 h. The collected digestion products were centrifuged at 10,000× g for 30 min at 4 °C, and the supernatant was analyzed for Que content to determine the bioaccessibility: (8) Bioaccessibility of Que%=Csupernatant/Cdigesta×100% where Csupernatant denotes the Que content in the supernatant after digestion, and Cdigesta refers to the total Que content in the final digesta after simulated gastrointestinal digestion.

Data set [4] has as its target T1, OGF.
T1 construct: amyloid-like fibrils made by acid-heat treatment without ultrasound, partly hydrolysed
The data set is described as follows: Intrinsic protein fluorescence quenching by quercetin (0-30 uM, 0.3 mg/mL protein, pH 3.2, inner filter corrected), double-logarithmic Stern-Volmer plot, 298 K. It counts as binding. The following applies: n = 3. Here is the method:
(§1) Intrinsic fluorescence spectroscopy was employed to investigate the interaction between OG and its fibrillar products with Que. The binding capacities of OG, OGF, and UOGF were evaluated at pH 3.2 with various concentrations of Que (0, 2.5, 5, 10, 15, 20, and 30 μM). The mixed samples were incubated at different temperatures of 24.85, 30.85, and 36.85 °C (298, 304, and 310 K) for 30 min. Then the intrinsic fluorescence spectra of each sample (0.3 mg/mL) were recorded using a Cary Eclipse fluorescence spectrophotometer (Agilent Technologies, Santa Clara, CA, USA) following to the previously described protocols. The instrument voltage was set to 650 V, with a slit width and scan rate of 5 nm and 1000 nm/min, respectively. Meanwhile, to correct for the inner filter effect, the following equation was applied as described by Ren et al.. (1) Fc=Fm×10^(Aex+Aem)/2 where Fc and Fm represent the corrected and measured fluorescence intensities, while Aex and Aem denote the absorbance at the excitation and emission wavelengths, respectively.
(§2) The fluorescence quenching mechanism of the complex system was further analyzed by fitting the obtained fluorescence intensity data using the Stern–Volmer equation: (2) F0/F=1+KSVQ=1+Kqτ0Q where F0 and F represent the fluorescence intensities of OG and its fibrils before and after the addition of the polyphenol quencher (Que), respectively; KSV is the Stern–Volmer quenching constant; Kq is the quenching rate constant; [Q] is the concentration of the quencher Que; and τ0 is the average lifetime of the fluorophore in the absence of the quencher.
(§3) Considering the static quenching effect between the OG protein/fibrils and the Que ligand, the binding mechanism was further analyzed using a double logarithmic Stern–Volmer equation: (9) lgF0−F/F=lgKa+nlgQ where the binding constant (Ka) and the number of binding sites (n) are key quantitative parameters reflecting the interaction between the bioactive molecule and the protein; the magnitude of Kₐ indicates the binding affinity between Que and the protein.

In data set [5] the target is T2, OG.
T2 construct: native oat globulin isolate, unfibrillated, pH 3.2
The description is as above. It counts as binding. The settings on record: n = 3. As for the experimental part:
as §1, §2, §3

The target in data set [6] is T3, UOGF.
T3 construct: amyloid-like fibrils, ultrasound pretreatment (pH 2, 9 W/mL, 20 min) then 90 °C for 18 h, partly hydrolysed
The data set is described as above. The following applies: n = 3. It counts as binding. Here is the method: as §1, §2, §3

The target of data set [7] is T1, OGF. The data set is described as follows: Intrinsic protein fluorescence quenching by quercetin (0-30 uM, 0.3 mg/mL protein, pH 3.2, inner filter corrected), double-logarithmic Stern-Volmer plot, 304 K. The settings on record: n = 3. It counts as binding. As for the experimental part: as §1, §2, §3
The target of data set [8] is T2, OG. Described as above. It counts as binding. The settings on record: n = 3. As for the experimental part:
as §1, §2, §3

For data set [9], the target named is T3, UOGF. The description is as above. Type of data set: binding. The following applies: n = 3. Here is the method:
as §1, §2, §3

Data set [10] concerns the target T1, OGF. The data set is described as follows: Intrinsic protein fluorescence quenching by quercetin (0-30 uM, 0.3 mg/mL protein, pH 3.2, inner filter corrected), double-logarithmic Stern-Volmer plot, 310 K. Type of data set: binding. The following applies: n = 3. As for the experimental part: as §1, §2, §3
The target of data set [11] is T2, OG. The description is as above. It counts as binding. The following applies: n = 3. As for the experimental part: as §1, §2, §3
Data set [12] has as its target T3, UOGF. Described as above. It counts as binding. The settings on record: n = 3. Here is the method:
as §1, §2, §3

Turning to `O=c1c(O)c(-c2ccc(O)c(O)c2)oc2cc(O)cc(O)c12` [Que, Quercetin], in data set [1], the “retention rate of Que after UV exposure” value was 27.78%. The “retention rate of Que after heating” value is reported as 45.13% in data set [2] (30 min) and 26.48% in data set [2] (150 min). Moreover, in data set [3], the “bioaccessibility of Que” value is listed as 8.21%.
In the case of `O=c1c(O)c(-c2ccc(O)c(O)c2)oc2cc(O)cc(O)c12` [Que, quercetin], the “Ka (M^−1), 298 K” value came to 17140 M⁻¹ in data set [4], 12850 M⁻¹ in data set [5] and 20910 M⁻¹ in data set [6]. For the same compound, the entries for the “Ka (M^−1), 304 K” value in data set [7], in data set [8] and in data set [9] were 26060 M⁻¹, 16330 M⁻¹ and 49870 M⁻¹, respectively. The “Ka (M^−1), 310 K” value is 79670 M⁻¹ in data set [10], 16470 M⁻¹ in data set [11] and 202600 M⁻¹ in data set [12].
